Reference: patent US20080299210A1, “STABLE NANOSIZED AMORPHOUS DRUG” (priority 2006, published 2008)

Tests used:
[1] = Differential scanning calorimetry (DSC) of drug samples; assay type: physicochemical; conditions: for ΔHc / Tg of drug: DSC scanning rate 10° C./min
Protocol: The amorphous state of the amorphous drug core is determined by subjecting a population of nanoparticles that comprise one or more nanoparticles that comprise the recited amorphous drug core to differential scanning calorimetry (DSC). In an embodiment, a DSC method according to the invention used a Perkin-Elmer DSC-7 or a Diamond DSC calorimeter applied for the measurement of specific transition temperatures of tested samples. […] The instrument was calibrated using indium, tin and zinc certified reference materials (CRMs) The amorphous state of the amorphous drug core, as measured by DSC is expressed as a weight fraction of the weight of amorphous material in the amorphous drug core to the total weight of the amorphous drug core, expressed as an average value across the population of nanoparticles being measured. For instance, if a population of nanoparticles was measured using DSC, and the amorphous state was determined to be a particular value for the population, that value would be considered the average amorphous state for each nanoparticle within the population. An inventive amorphous drug core may contain a small amount of crystalline drug. […] “Glass forming ability” or “GFA” means the ratio of Tg to Tm. It can be calculated as: […] is a measure of the tendency of an amorphous drug to remain in an amorphous state. […] “Glass transition temperature” or “Tg” means that temperature at which a material transitions to a glassy state from a liquid state, as measured at standard atmospheric pressure. […] C. […] C.

Water solubility of drug = assay type: physicochemical; conditions: 25 °C
Protocol: “Water solubility” means a measure of the maximum possible concentration of a drug dissolved in water. The water temperature may be specified; in an embodiment water solubility is determined at 25 Deg. C. Units of measurement of water solubility are typically mass/volume, such as mg/ml. The water solubility of drug useful in the practice of the present invention is less than or equal to about 1 mg/ml at 25 Deg. C.; preferably less than or equal to about 0.1 mg/ml at 25 Deg. C.; more preferably less than or equal to about 0.01 mg/ml at 25 Deg. C., still more preferably less than or equal to about 1 microgram/ml at 25 Deg. C.

Structure (SMILES): CC(C)(C)c1ccc(C(O)CCCN2CCC(C(O)(c3ccccc3)c3ccccc3)CC2)cc1 (stereo not shown) [Crystalline terfenadine, terfenadine]
- ΔHc [1]: 108.63 J/g

Structure (SMILES): O=C(NN1CCCCC1)c1nn(-c2ccc(Cl)cc2Cl)c2c1CCC/C2=C\c1ccc(F)cc1 [COMPOUND 1]
- solubility (Water solubility of drug): ≤ 0.2 ng/mL
- glass forming ability (GFA), Tg/Tm [1]: 0.81

Structure (SMILES): CC(C)(C)c1ccc(C(O)CCCN2CCC(C(O)(c3ccccc3)c3ccccc3)CC2)cc1 (stereo not shown) [terfenadine, Terfenadine]
- glass forming ability (GFA), Tg/Tm [1]: 0.77

Structure (SMILES): O=C(NN1CCCCC1)c1nn(-c2ccc(Cl)cc2Cl)c2c1CCC/C2=C\c1ccc(F)cc1 [Crystalline COMPOUND 1]
- ΔHc [1]: 77.64 J/g

Structure (SMILES): O=C(NN1CCCCC1)c1nn(-c2ccc(Cl)cc2Cl)c2c1CCC/C2=C\c1ccc(F)cc1 [Amorphous COMPOUND 1]
- Tg of drug [1]: 87.07 °C
- ΔHc [1]: 0 J/g

Structure (SMILES): CC(C)(C)c1ccc(C(O)CCCN2CCC(C(O)(c3ccccc3)c3ccccc3)CC2)cc1 (stereo not shown) [Amorphous terfenadine, terfenadine]
- Tg of drug [1]: 53.77 °C
- ΔHc [1]: 10.35 J/g
- crystallinity (crystalline portion) by DSC ([1]; relative to original crystallinity): less than 20%
